Literature values, collected in patent US20040248861A1, “Modified delta5-androstenes having improved bioavailability” (priority 2003, published 2004).

What was measured:
[1] = test system: virus similar to HIV; settings: doses as low as 8 mg/kg/day
[2] = test system: flu viruses; settings: mice infected with flu viruses; to some of the viruses
[3] = supplement to diet
[4] = single transdermal dose of 25 mg
[5] = 200 mg/day for 28 days
[6] = monkeys, very high doses (equivalent to about 70 grams/day for a human)
[7] = patients with normal adrenal function taking supplemental DHEA
[8] = not given; remark: listed apart in the source

C[C@]12CC[C@H](O)CC1=CC(=O)[C@@H]1[C@@H]2CC[C@]2(C)C(=O)CC[C@@H]12 [7-keto-DHEA, 7-keto-dehydroepiandrosterone]
bodyweight [1]: regained bodyweight | metabolism to estrogens or testosterone (in vivo): does not metabolize | estradiol levels in the blood (supplementary 7-keto-DHEA): decrease | testosterone levels in the blood (supplementary 7-keto-DHEA): decrease | anti-viral antibodies [2]: increase | T3 thyroid stimulating hormone [3]: increased | body fat [3]: statistically significant decreased | bodyweight [3]: statistically significant decreased | blood levels of HDL-cholesterol [4]: improved | safety problems in clinical trials [5]: no safety problems | salivation [6]: caused excess salivation

C[C@]12CC[C@H](O)CC1=CC[C@@H]1[C@@H]2CC[C@]2(C)C(=O)CC[C@@H]12 [DHEA, dehydroepiandrosterone]
acne (share of patients) [7]: over 50%

C[C@]12CC[C@H]3[C@@H](CCC4=CC(=O)CC[C@@]43C)[C@@H]1CC[C@@H]2O [free testosterone, testosterone]
effect on serum levels of testosterone ([8]; oral, equivalent dose (63 mg)): no noticeable effect

CCCCCCCCCCC(=O)O[C@H]1CC[C@H]2[C@@H]3CCC4=CC(=O)CC[C@]4(C)[C@H]3CC[C@]12C [testosterone undecanoate]
increase in serum levels of testosterone ([8]; single oral dose of 100 mg, dissolved in oil): 2.3 fold
